For assay [1], the target named is T1, Kappa-type opioid receptor (Homo sapiens, UniProt P41145). Briefly: Antagonist activity at KOR (unknown origin) expressed in HEK cells assessed as cAMP accumulation by split luciferase assay. It counts as functional, cell-based.
For assay [2], the target named is T2, Delta-type opioid receptor (Homo sapiens, UniProt P41143). The experiment in a line: Antagonist activity at DOR (unknown origin) expressed in HEK cells assessed as cAMP accumulation by split luciferase assay. It counts as functional, cell-based.
T2 sequence (P41143 whole entry): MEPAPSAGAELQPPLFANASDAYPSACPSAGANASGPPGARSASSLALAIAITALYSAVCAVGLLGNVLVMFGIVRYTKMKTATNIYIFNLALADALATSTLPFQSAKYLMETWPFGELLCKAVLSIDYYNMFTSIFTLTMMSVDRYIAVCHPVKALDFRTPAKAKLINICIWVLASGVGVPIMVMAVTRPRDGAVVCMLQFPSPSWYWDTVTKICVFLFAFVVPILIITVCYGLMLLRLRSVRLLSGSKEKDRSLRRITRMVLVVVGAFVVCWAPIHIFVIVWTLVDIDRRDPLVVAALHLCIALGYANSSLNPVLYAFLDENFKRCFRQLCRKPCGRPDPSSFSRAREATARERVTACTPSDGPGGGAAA
Assay [3] addresses T3, Mu-type opioid receptor (Homo sapiens, UniProt P35372). Briefly: Antagonist activity at MOR (unknown origin) expressed in HEK cells assessed as cAMP accumulation by split luciferase assay. It counts as functional, cell-based.
Assay [4] addresses T3, Mu-type opioid receptor. The experiment in a line: Agonist activity at MOR (unknown origin) expressed in HEK cells assessed as reduction in cAMP accumulation by split luciferase assay relative to DAMGO. It counts as functional, cell-based.
Assay [5] concerns the target T2, Delta-type opioid receptor. The experiment in a line: Agonist activity at DOR (unknown origin) expressed in HEK cells assessed as reduction in cAMP accumulation by split luciferase assay relative to DADLE. It counts as functional, cell-based.
Assay [6] addresses T1, Kappa-type opioid receptor. Briefly: Agonist activity at KOR (unknown origin) expressed in HEK cells assessed as reduction in cAMP accumulation by split luciferase assay relative to salvinorin A. It counts as functional, cell-based.
For assay [7], the target named is T3, Mu-type opioid receptor. Briefly: Displacement of [3H]DAMGO from MOR (unknown origin) expressed in HEK cells. It counts as cell-based.
Assay [8] deals with T2, Delta-type opioid receptor. The experiment in a line: Displacement of [3H]DADLE from DOR (unknown origin) expressed in HEK cells. It counts as cell-based.
Assay [9] concerns the target T1, Kappa-type opioid receptor. Briefly: Displacement of [3H]U69593 from KOR (unknown origin) expressed in HEK cells. It counts as cell-based.
Assay [10] addresses T3, Mu-type opioid receptor. Briefly: Agonist activity at MOR (unknown origin) expressed in HEK cells assessed as reduction in cAMP accumulation by split luciferase assay. It counts as functional, cell-based.
Assay [11] deals with T2, Delta-type opioid receptor. Briefly: Agonist activity at DOR (unknown origin) expressed in HEK cells assessed as reduction in cAMP accumulation by split luciferase assay. It counts as functional, cell-based.
The target in assay [12] is T1, Kappa-type opioid receptor. Briefly: Agonist activity at KOR (unknown origin) expressed in HEK cells assessed as reduction in cAMP accumulation by split luciferase assay. It counts as functional, cell-based.
The target in assay [13] is T1, Kappa-type opioid receptor. The experiment in a line: Binding affinity to KOR (unknown origin).

Each structure is given as a SMILES string. Active and inactive are the calls of the source. The calls are words filed in the database; no cut-off is given here. *1 amine or outer side, *2 acyl side, *3 side chain or, on linkers, in order; H or OH if unused. Where a SMILES comes first, the peptide text is derived from it. Bridges are numbered along the chain shown (N, C = ends). Roman numbers before positions name the chains, in order. [ ]: non-standard residue; d: D form. Piperazine(1,4-diyl) = C1CN([*:2])CCN1[*:1]; Dmt = Cc1cc(O)cc(C)c1C[C@H](N)C(=O)O; Cystamine = C(CSSCCN[*:2])N[*:1]

T1 sequence (P41145 whole entry): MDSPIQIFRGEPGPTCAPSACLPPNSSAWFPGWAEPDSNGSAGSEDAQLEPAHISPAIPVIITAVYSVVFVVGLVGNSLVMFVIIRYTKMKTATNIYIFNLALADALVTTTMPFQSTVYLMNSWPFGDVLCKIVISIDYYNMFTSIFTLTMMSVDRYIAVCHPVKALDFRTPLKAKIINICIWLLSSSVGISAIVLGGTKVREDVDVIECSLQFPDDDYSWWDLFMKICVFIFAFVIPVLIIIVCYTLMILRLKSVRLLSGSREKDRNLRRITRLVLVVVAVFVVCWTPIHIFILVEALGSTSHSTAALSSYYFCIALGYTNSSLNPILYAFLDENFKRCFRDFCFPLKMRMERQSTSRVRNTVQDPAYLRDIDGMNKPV
T3 sequence (P35372 whole entry): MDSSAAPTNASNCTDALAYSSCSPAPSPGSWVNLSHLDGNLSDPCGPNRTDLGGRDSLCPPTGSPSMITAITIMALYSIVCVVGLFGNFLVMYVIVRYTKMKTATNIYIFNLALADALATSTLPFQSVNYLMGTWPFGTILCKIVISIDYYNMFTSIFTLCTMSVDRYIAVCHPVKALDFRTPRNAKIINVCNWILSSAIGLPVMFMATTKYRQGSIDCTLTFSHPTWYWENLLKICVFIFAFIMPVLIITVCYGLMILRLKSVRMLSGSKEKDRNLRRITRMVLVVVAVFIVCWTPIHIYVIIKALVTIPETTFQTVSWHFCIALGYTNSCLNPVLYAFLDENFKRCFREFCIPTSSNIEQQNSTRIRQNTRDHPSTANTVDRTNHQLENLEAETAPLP

As for `CC1(C)SSC(C)(C)[C@H](NC(=O)[C@@H](N)Cc2ccc(O)cc2)C(=O)NCC(=O)N[C@@H](Cc2ccccc2)C(=O)N2CCN(CC2)C(=O)[C@H](Cc2ccccc2)NC(=O)CNC(=O)[C@H]1NC(=O)[C@@H](N)Cc1ccc(O)cc1` (HELM PEPTIDE1{Y.[Pen].G.F}|PEPTIDE2{Y.[Pen].G.F}|CHEM1{[C1CN([*:2])CCN1[*:1]]}$PEPTIDE1,PEPTIDE2,2:R3-2:R3|PEPTIDE1,CHEM1,4:R2-1:R1|PEPTIDE2,CHEM1,4:R2-1:R2$$$V2.0), the outcome in assay [1], in [2] and in assay [3] was inactive. For the same compound, the maximal effect (Emax) in assay [4] was determined as 86%; in assay [5], 206%; in assay [6], 62%.

Take `N[C@@H](Cc1ccc(O)cc1)C(=O)N[C@@H]1CSSC[C@@H](NC(=O)[C@@H](N)Cc2ccc(O)cc2)C(=O)NCC(=O)N[C@@H](Cc2ccccc2)C(=O)N2CCN(CC2)C(=O)[C@H](Cc2ccccc2)NC(=O)CNC1=O` (HELM PEPTIDE1{Y.[dC].G.F}|PEPTIDE2{Y.[dC].G.F}|CHEM1{[C1CN([*:2])CCN1[*:1]]}$PEPTIDE1,PEPTIDE2,2:R3-2:R3|PEPTIDE1,CHEM1,4:R2-1:R1|PEPTIDE2,CHEM1,4:R2-1:R2$$$V2.0): the result in assay [1], in assay [2] and in assay [3] was inactive. Also, the inhibition constant (Ki) in assay [7] worked out at 8.9 nM; in [8], 27 nM; in [9], 19 nM. Moreover, the EC50 in assay [10] was found to be 513 nM; in assay [11] (read-out: EC50), 245 nM; in assay [12] it was 339 nM. Also, the maximal response (Emax) in assay [4] turned out to be 54%; in assay [5], 77%; in [6] it was 92%.

Regarding `N[C@@H](Cc1ccc(O)cc1)C(=O)N[C@@H]1CSSC[C@@H](NC(=O)[C@@H](N)Cc2ccc(O)cc2)C(=O)NCC(=O)N[C@@H](Cc2ccccc2)C(=O)NCCSSCCNC(=O)[C@H](Cc2ccccc2)NC(=O)CNC1=O` (HELM PEPTIDE1{Y.[dC].G.F}|PEPTIDE2{Y.[dC].G.F}|CHEM1{[C(CSSCCN[*:2])N[*:1]]}$PEPTIDE1,PEPTIDE2,2:R3-2:R3|PEPTIDE1,CHEM1,4:R2-1:R1|PEPTIDE2,CHEM1,4:R2-1:R2$$$V2.0), the outcome in assay [1], in assay [2] and in [3] was inactive. Further, the Ki in assay [7] is 2.4 nM; in assay [8], 4.1 nM; in assay [9] it was 18 nM. Besides, the results for the EC50 in assay [10], in [11] (read-out: EC50) and in assay [12] were 87.1 nM, 26.9 nM and 135 nM, respectively. The values for the Emax in assay [4], in assay [5] and in assay [6] were 90%, 91% and 99%, respectively.

With `Cc1cc(O)cc(C)c1C[C@H](N)C(=O)N[C@@H]1CSSC[C@@H](NC(=O)[C@@H](N)Cc2c(C)cc(O)cc2C)C(=O)NCC(=O)N[C@@H](Cc2ccccc2)C(=O)NCCSSCCNC(=O)[C@H](Cc2ccccc2)NC(=O)CNC1=O` (I: H-[Dmt][dC]GF / II: H-[Dmt][dC]GF; disulfide I:2-II:2; linker I:C-II:C via Cystamine), the result in assay [1], in [2] and in [3] was inactive. Also, the Ki is 0.27 nM in [7], 0.46 nM in assay [8] and 0.87 nM in assay [9]. Further, the EC50 in assay [10] came out at 3.47 nM; in assay [11] (read-out: EC50) it was 1.45 nM; in assay [12], 13.5 nM. Also, the maximal response (Emax) in assay [4] was determined as 119%; in assay [5], 106%; in [6], 98%.

For `Cc1cc(O)cc(C)c1C[C@H](N)C(=O)N[C@@H]1CSSC[C@@H](NC(=O)[C@@H](N)Cc2c(C)cc(O)cc2C)C(=O)NCC(=O)N[C@@H](Cc2ccccc2)C(=O)N2CCN(CC2)C(=O)[C@H](Cc2ccccc2)NC(=O)CNC1=O` (I: H-[Dmt][dC]GF / II: H-[Dmt][dC]GF; disulfide I:2-II:2; linker I:C-II:C via Piperazine(1,4-diyl)), the result in assay [1], in assay [2] and in [3] was inactive. In addition, the Ki in assay [7] worked out at 2.5 nM; in [8], 2 nM; in assay [9] it was 4.9 nM. The EC50 in assay [10] was 112 nM; in [11] (read-out: EC50), 117 nM; in assay [11] (read-out: pEC50 (converted)) it was 11.7 nM; in [12], 63.1 nM. Also, the Emax in [4] turned out to be 58%; in assay [5] it was 90%; in assay [6], 82%.

Compound `C[C@@H](NC(=O)[C@@H](N)Cc1ccc(O)cc1)C(=O)NCC(=O)N[C@@H](Cc1ccccc1)C(=O)NNC(=O)[C@H](Cc1ccccc1)NC(=O)CNC(=O)[C@@H](C)NC(=O)[C@@H](N)Cc1ccc(O)cc1` [BIPHALIN] returned an inhibition constant Ki in [13] of 270 nM.

(Values after ChEMBL document CHEMBL4118237 (Bioorg Med Chem, 2018).)
